d = 2'-deoxy (DNA); r = 2'-OH (RNA)
Experiments:
LNCaP-Hsp27 cells = assay: Crystal violet cell growth assay, LNCaP-Hsp27 cells; assay type: cell-based, human
Method: (§1) In brief, cells were seeded in each well of 12-well microtiter plates (30 000 to 50 000 cells per well) and allowed to attach overnight. To study the effect of TCTP downregulation on apoptosis induced by docetaxel, PC-3 cells were transiently transfected the day after seeding with 5 nM of TCTP siRNA for 48 h or 100 nM of TCTP ASO for 72 h. Cells were then treated with 50 nM of docetaxel and MTT assays were performed after 24 h. To assess the effect of TCTP downregulation on Hsp27 cytoprotection, LNCaP-Mock and -Hsp27 cells were transiently transfected the day after seeding with 5 nM of TCTP siRNA for 48 h. The down- or upregulation of TCTP effect on LNCaP and C4-2 cell viability was realized after transient transfections with 100 nM of TCTP ASO or 0.02 μg/μl of pDEST-TCTP for 72 h and 48 h respectively. Cells were then treated with 1 nM of docetaxel in serum-free media (mimics androgen withdrawal in vitro) and crystal violet assays were performed the day after. Each assay was performed in triplicate.
To study the functional role of TCTP in CRPC, siRNA-induced inhibition of TCTP expression was used to determine whether the reduction of TCTP expression affects LNCaP-Mock and -Hsp27 cell growth after combined androgen withdrawal and docetaxel-chemotherapy treatment in vitro.
In order to study consequences of TCTP inhibition on cell survival after combined androgen withdrawal and docetaxel-chemotherapy treatment, cell viability of LNCaP-Mock and -Hsp27 was determined using crystal violet dye after 24 h treatment with 1 nM of docetaxel in serum-free media (mimics androgen withdrawal in vitro). […] After TCTP siRNA plus docetaxel in serum-free medium treatment (mimics androgen withdrawal in vitro), we found an 80% (**, P≤0.01) reduction in LNCaP-Hsp27 cell growth rate versus a 50% (**, P≤0.01) reduction in LNCaP-Mock compared to control.

LNCaP-Mock cells = assay: Crystal violet cell growth assay, LNCaP-Mock cells; assay type: cell-based, human
Method: as §1
In order to study consequences of TCTP inhibition on cell survival after combined androgen withdrawal and docetaxel-chemotherapy treatment, cell viability of LNCaP-Mock and -Hsp27 was determined using crystal violet dye after 24 h treatment with 1 nM of docetaxel in serum-free media (mimics androgen withdrawal in vitro). […]

LNCaP cells = assay: Crystal violet cell growth assay, LNCaP cells; assay type: cell-based, human
Method: as §1
Finally, in order to assess if TCTP ASO has the same effect on prostatic cancer cell lines expressing the androgen receptor (AR), crystal violet dye was used to examin LNCaP and C4-2 cell growth. LNCaP and C4-2 were treated with 100 nM TCTP or control ASO (FIGS. 15 A and B) for 2 days. Then, LNCaP and C4-2 cells were incubated with 1 nM of docetaxel in serum-free media.

LNCaP tumors = assay: LNCaP tumor growth in vivo after castration in athymic nude mice
Method: (§2) Approximately 3.10^6 PC-3 cells and 10.10^6 LNCaP cells were inoculated subcutaneously with 0.1 mL of Dulbecco's Modified Eagle's Medium (Invitrogen) supplemented with 10% FCS for PC-3 or with 0.1 mL of Matrigel (BD Biosciences Discovery Labware) for LNCaP in the flank region of 4-week-old male athymic nude mice (Charles River, L'Arbresle, France) via a 23-gauge needle. When PC-3 tumors reached 50 mm^3, usually 3 to 4 weeks after injection, mice were randomly selected for treatment with TCTP ASO alone, scrambled ASO alone, TCTP ASO plus docetaxel or scrambled ASO plus docetaxel. Mice bearing LNCaP tumors between 200 and 300 mm^3 in volume were castrated via scrotal approach and randomly assigned to a treatment arm. Mice were treated beginning 1 week after castration with TCTP ASO or control ASO alone and serum PSA measurements were done weekly. For both experiments, each experimental group consisted in 10 mice and the tumor volume measurements were performed once weekly and calculated by the formula length×width×depth×0.5236 (Gleave et al., 1999, Clin Cancer Res 5:2891-8). After randomization, 10 mg/kg TCTP or scrambled ASO was injected intraperitoneally (i.p) once daily for 60 days for ASO monotherapy groups and 90 days for the ASO plus docetaxel groups. A total of 35 mg/kg docetaxel was administrated i.p. three times per week from days 7 to 14. Tumor volume measurements were performed once weekly and calculated by the formula length×width×depth×0.5236 (20). Data points were expressed as average tumor volume levels +/−standard error (SE). All animal procedures were performed in accordance with protocols approved by French laws and the European directives and with appropriate institutional certification.
Twenty male mice bearing LNCaP tumors were castrated 6 to 8 weeks after tumor implantation and were randomly selected for treatment with TCTP ASO of SEQ ID NO: 2 versus control ASO. Castration was done when tumors reached a mean of 200 mm3. Mean tumor volume and PSA were similar in both groups at the beginning of the treatment. Beginning 1 week after castration, 10 mg/kg of ASO was administered once daily by i.p. injection for 9 weeks. […] At sacrifice, tumor volume was 4-fold higher in control (1650, 15±281, 76 mm^3) compared with the TCTP ASO-treated group (397, 79±132, 61 mm^3; *, P≤0.05).

PC-3 tumors = assay: PC-3 tumor growth in vivo in athymic nude mice
Method: as §2
We next evaluated the effects of TCTP ASO treatment on the growth of PC-3 tumors in vivo (FIG. 8). Male nude mice bearing PC-3 tumors (50 mm^3) were randomly selected for TCTP ASO versus scrambled ASO and 10 mg/kg ASO were administrated once daily by i.p. injection for […]. From days 7 to 14, 30 mg/kg of docetaxel was administrated i.p. 3 days in the week. Mean tumor volume was similar in all groups before therapy.
TCTP inhibition was evaluated in nude mice xenografted with the PC3 CRPC cell line. The animals were treated in an everyday basis and for a period of two months by peritoneal injection of ASO or control TCTP once their tumor volume was 200-300 mm^3. In order to evaluate the additive anticancer activity of ASO TCTP, mice were treated with docetaxel (33 mg/kg) by peritoneal injection three times per week for one week prior to ASO or control TCTP injections. For all experiments, the average tumor volume was measured once a week.

[1] = siRNA 5 nM alone, compared with control
[2] = siRNA plus 1 nM docetaxel in serum-free medium, 24 h

With “5′-AACCCGUCCGCGAUCUCCCdGdG-3′ (AACCCGUCCGCGAUCUCCCGG; siRNA; sugars from the 5' end r19 d2, backbone not given here) [TCTP siRNA, from Qiagen]” the “cytoprotection to androgen withdrawal and docetaxel conferred by Hsp27 overexpression” value (LNCaP-Hsp27 cells; siRNA 5 nM) was “reversed the cytoprotection”, the “reduction in LNCaP-Hsp27 cell growth rate” value (LNCaP-Hsp27 cells; [1]) was 50% and the “reduction in LNCaP-Hsp27 cell growth rate” value (LNCaP-Hsp27 cells; [2]) was 80%. For the same substance, the “reduction in LNCaP-Mock cell growth rate” value (LNCaP-Mock cells; [1]) was 40% and the “reduction in LNCaP-Mock cell growth rate” value (LNCaP-Mock cells; [2]) was 50%.

For “5′-ACCAATGAGCGAGTCATCAA-3′ (phosphorothioate backbone, further chemistry not given here) [ASO10]”, the LNCaP cell growth (LNCaP cells; 100 nM ASO for 2 days) was “considerably decrease”, the “sensitivity to docetaxel and androgen withdrawal” value (LNCaP cells; LNCaP, 100 nM ASO 2 days then 1 nM docetaxel in serum-free media) was “enhance treatments (docetaxel and androgen withdrawal) sensitivity” and the “LNCaP tumor volume increase compared with control ASO” value (LNCaP tumors; 9 weeks after castration) was “increased more slowly”. For the same substance, the “harvested tumors smaller in appearance” value (LNCaP tumors; after 9 weeks of TCTP ASO monotherapy) was “¾”, the “tumor volume in control compared with the TCTP ASO-treated group” value (LNCaP tumors; at sacrifice) was 4 fold and the “side effects (animal behavior, body weight)” value (LNCaP tumors; castrated mice bearing LNCaP tumors, 9 weeks) was “No side effects”. The tumor volume (PC-3 tumors; PC3 xenografted nude mice, 10th week of treatment) was 500 mm^3, the tumor volume maintained (PC-3 tumors; PC3 xenografted nude mice, docetaxel (33 mg/kg) followed by ASO TCTP) was 100 mm^3 and the “reduction of mean PC-3 tumor volume” value (PC-3 tumors; TCTP ASO plus docetaxel vs scrambled control, 13 weeks after initiation of treatment) was less than 70%. The “harvested tumors smaller in appearance” value (PC-3 tumors; after two weeks of i.p. treatment) was 50%, the “general toxicity (animal behavior, body weight)” value (PC-3 tumors; mice bearing PC-3 tumors, body weight t0 vs tf) was “did not cause general toxicity” and the “reduction of PC-3 tumor volume” value (PC-3 tumors; monotherapy 10 mg/kg i.p. once daily, days 56 to 70, vs scrambled control) was 50%. The “cleaved caspase-3 fragments in harvested PC-3 tumors” value (PC-3 tumors; western blotting, i.p. delivery) was “presence of cleaved caspase-3 fragments”.

Reference: US10105384B2, “Nucleic acids targeting TCTP for use in the treatment of chemo- or hormone-resistant cancers” (INSTITUT NATIONAL DE LA SANTE ET DE LA RECHERCHE MEDICALE …, priority 2010, dated 2018)
